{
  "source": "paper PMC6482079",
  "about": "(European journal of pharmaceutical sciences : official …, 2019)",
  "assay_in_all_cases": "microbe, parasite or virus in culture",
  "assay_type_in_all_cases": "cell-based, influenza A virus",
  "details_in_all_cases": "for Drug sensitivity: sensitivity of the strain to the named drug",
  "key": {"[1]": {"test_system": "A/North Carolina/39/2009 (H1N1)"}, "[2]": {"test_system": "A/Switzerland/9715293/2013 (H3N2)"}, "[3]": {"test_system": "A/Washington/29/2009 (H1N1)"}, "A/WSN/1933 (H1N1)": {"test_system": "A/WSN/1933 (H1N1)"}, "[4]": {"test_system": "A/Denmark/528/2009 (H1N1)"}, "A/Texas/04/2009 (H1N1)": {"test_system": "A/Texas/04/2009 (H1N1)"}, "[5]": {"test_system": "A/California/07/2009 (H1N1)"}},
  "data": [
    {"smiles": "CCC(CC)O[C@@H]1C=C(C(=O)O)C[C@H](N)[C@H]1NC(C)=O", "note": "[Oseltamivir carboxylate]", "values": [
      {"measurement": "Drug sensitivity", "setting": "[1]", "value": "Amantadine Resistant Oseltamivir Resistant"},
      {"measurement": "Drug sensitivity", "setting": "[2]", "value": "Sensitive"},
      {"measurement": "Drug sensitivity", "setting": "[3]", "value": "Amantadine Resistant Oseltamivir Resistant"},
      {"measurement": "Drug sensitivity", "setting": "A/WSN/1933 (H1N1)", "value": "Sensitive"},
      {"measurement": "Drug sensitivity", "setting": "[4]", "value": "Amantadine Resistant Oseltamivir Resistant"},
      {"measurement": "Drug sensitivity", "setting": "A/Texas/04/2009 (H1N1)", "value": "Amantadine Resistant Oseltamivir Resistant"},
      {"measurement": "Drug sensitivity", "setting": "[5]", "value": "Sensitive"}
    ]},
    {"smiles": "Cc1cc(OCc2nnc(SC3CCCC3)n2-c2cccnc2)ccc1-c1ccc(S(C)(=O)=O)cc1", "note": "[NMS-873]", "values": [
      {"measurement": "SI (selectivity index)", "setting": "[1]; CC50/EC50", "value": 78},
      {"measurement": "EC50", "setting": "[1]; Influenza A virus, H1N1, MDCK", "value": "35 ± 5", "unit": "nM"},
      {"measurement": "SI (selectivity index)", "setting": "[2]; CC50/EC50", "value": 129},
      {"measurement": "EC50", "setting": "[2]; Influenza A virus, H3N2, MDCK", "value": "21 ± 2", "unit": "nM"},
      {"measurement": "SI (selectivity index)", "setting": "[3]; CC50/EC50", "value": 66},
      {"measurement": "EC50", "setting": "[3]; Influenza A virus, H1N1, MDCK", "value": "41 ± 5", "unit": "nM"},
      {"measurement": "SI (selectivity index)", "setting": "A/WSN/1933 (H1N1); CC50/EC50", "value": 74},
      {"measurement": "EC50", "setting": "A/WSN/1933 (H1N1); Influenza A virus, H1N1|WSN, MDCK", "value": "37 ± 2", "unit": "nM"},
      {"measurement": "SI (selectivity index)", "setting": "[4]; CC50/EC50", "value": 70},
      {"measurement": "EC50", "setting": "[4]; Influenza A virus, H1N1, MDCK", "value": "39 ± 4", "unit": "nM"},
      {"measurement": "SI (selectivity index)", "setting": "A/Texas/04/2009 (H1N1); CC50/EC50", "value": 71},
      {"measurement": "EC50", "setting": "A/Texas/04/2009 (H1N1); Influenza A virus, H1N1, MDCK", "value": "38 ± 5", "unit": "nM"},
      {"measurement": "SI (selectivity index)", "setting": "[5]; CC50/EC50", "value": 49},
      {"measurement": "EC50", "setting": "[5]; Influenza A virus, H1N1, MDCK", "value": "56 ± 5", "unit": "nM"}
    ]},
    {"smiles": "NC12CC3CC(CC(C3)C1)C2", "note": "[Amantadine, amantadine]", "values": [
      {"measurement": "Drug sensitivity", "setting": "[1]", "value": "Amantadine Resistant Oseltamivir Resistant"},
      {"measurement": "Drug sensitivity", "setting": "[2]", "value": "Amantadine Resistant Oseltamivir Sensitive"},
      {"measurement": "Drug sensitivity", "setting": "[3]", "value": "Amantadine Resistant Oseltamivir Resistant"},
      {"measurement": "Drug sensitivity", "setting": "A/WSN/1933 (H1N1)", "value": "Amantadine Resistant Oseltamivir Sensitive"},
      {"measurement": "Drug sensitivity", "setting": "[4]", "value": "Amantadine Resistant Oseltamivir Resistant"},
      {"measurement": "Drug sensitivity", "setting": "A/Texas/04/2009 (H1N1)", "value": "Amantadine Resistant Oseltamivir Resistant"},
      {"measurement": "Drug sensitivity", "setting": "[5]", "value": "Amantadine Resistant Oseltamivir Sensitive"}
    ]}
  ]
}
